Results on eleven compounds are retold here after patent US20240252677A1, “ONE-COMPONENT DELIVERY SYSTEM FOR NUCLEIC ACIDS” (The Trustees of the University of Pennsylvania, priority 2021, published 2024).

The nature of data set [1]: pKa measurements of individual IAJD molecules by titration. Format: physicochemical. The following applies: ethanol saturated with NaCl, titrated with 0.1 M aqueous HCl; Table 15; individual IAJD molecule, titration. As to the method:
pKa measurements of individual IAJD Molecules was performed as follows. IAJD Molecules were first dissolved in ethanol (Sat. with NaCl) at a concentration of 1.5 mg/mL and the solution volume was 3 mL.
Then 0.1 M HCl solution was added to the above ethanol solution with an increment of 7.5 μL. The resulting pH after each addition of HCl solution was measured by an Thermo Scientific Orion Star A121 meter with Thermo Scientific Orion 8220BNWP pH probe. pKa was determined using the half equivalence point titration.

Data set [2] is described as follows: Dimensions (size, PDI) of DNPs co-assembled from IAJDs and Luc-mRNA by DLS. To be noted: DNPs, IAJD 4 mg/mL + Luc-mRNA 0.10 mg/mL. It counts as physicochemical. As to the method:
Dynamic Light Scattering (DLS) for the DNPs was performed in buffer with a Malvern Instruments particle sizer (Zetasizer Nano S, Malvern Instruments, UK) equipped with 4 mW He—Ne laser 633 nm and avalanche photodiode positioned at […] to the beam and temperature-controlled cuvette holder. Instrument parameters were determined automatically along with measurement times.
Formulation of DNPs Containing mRNA-Luc: IAJDs were dissolved in ethanol with various initial concentrations (5-160 mg/mL). Nucleoside-modified mRNA encoding firefly luciferase (mRNA-Luc) was dissolved in water with various initial concentrations (1-4 mg/mL). 12.5 μL of mRNA solution was placed into a clean RNAs free eppendorf (1.5 mL) and mixed with 463 μL of citrate buffer (10 mM, pH 3.0)/acetate buffer (10 mM). For encapsulation of mRNA into IAJDs, 25 μL of IAJDs of the ethanol stock solution was rapidly injected into mRNA solution in citrate or acetate buffer followed by vortex for 5 seconds.
Dynamic Light Scattering (DLS) for the sizes and polydispersities of DNPs was performed on a Malvern Instruments particle sizer (Zetasizer Nano S, Malvern Instruments, UK) equipped with 4 mW He—Ne laser 633 nm and avalanche photodiode positioned at […] to the beam and temperature-controlled cuvette holder. Instrument parameters were determined automatically along with measurement times. Sample solution (0.4 mL) was placed in a semi-micro cuvette (1.6 mL, polystyrene, 10×10×45 mm, manufactured by Greiner Bio-One) and the measurements were performed at 23° C.
Formulation of DNPs obtained by co-assembly of IAJDs and Luc-mRNA was performed as follows. IAJDs were dissolved in ethanol with an initial concentration of 80 mg/mL. Nucleoside-modified mRNA encoding firefly luciferase (Luc-mRNA) was dissolved in UltraPure DNase/RNase-free distilled water with an initial concentration of 4.0 mg/mL. 12.5 μL of Luc-mRNA solution was placed into a clean RNAs free eppendorf (1.5 mL) and 463 μL acetate buffer (10 mM, pH 4.0) was added. Then, 25 μL of IAJD in the ethanol stock solution was rapidly injected into the Luc-mRNA solution in acetate buffer followed by vortex for 5 seconds.
Dynamic Light Scattering (DLS) for the dimensions (sizes and polydispersities) of DNPs was performed on a Malvern Instruments particle sizer (Zetasizer Nano S, Malvern Instruments, UK) equipped with 4 mW He—Ne laser 633 nm and avalanche photodiode positioned at 175° to the beam and temperature-controlled cuvette holder. Instrument parameters were set up automatically along with measurement times. Sample solution (c.a. 0.4 mL) was placed in a semi-micro cuvette (1.6 mL, polystyrene, 10×10×45 mm, Greiner Bio-One) and the measurements were performed at 23° C.
Formulation of DNPs Co-assembled from IAJDs and Luc-mRNA: nucleoside-modified mRNA encoding firefly luciferase (Luc-mRNA) was dissolved in UltraPure DNase/RNase-free distilled water with an initial concentration of 4.0 mg/mL. IAJD molecules were dissolved in ethanol with an initial concentration of 80 mg/mL. 12.5 μL of Luc-mRNA solution was taken and placed into a clean RNAs free eppendorf (1.5 mL). Then 463 μL of acetate buffer (10 mM, pH 4.0) was added. Afterwards, 25 μL of IAJD in the ethanol stock solution was taken and rapidly injected into the above Luc-mRNA solution in acetate buffer followed by vortex for 5 seconds.

For a further data set, the system named is spleen. As to the kind of experiment: In vivo mRNA delivery, IVIS imaging of organs: spleen. Set-up: species or system mice. To be noted: Table 14. On the procedure:
The exposure time was 1 min.
Tissue luminescence signal was measured on the IVIS imaging system using an exposure time of 60 seconds using medium binning (binning=8) to ensure that the signal obtained was within operative detection range. […] Bioluminescence imaging was performed as described above.
Tissue luminescence signal was measured on the IVIS imaging system using a certain exposure time (60, 30 or 15 seconds) and medium binning (binning=8) to ensure that the signal obtained was within operative detection range.

The mark [3] stands for this setting: Table 12, acetate buffer 10 mM pH 4.0.
Where [4] appears, read: Table 13, acetate buffer pH 4.0.
Where [5] appears, read: Table 14, acetate buffer pH 4.0.

The compound `CCCCCCCCCCCCOc1ccc(COC(=O)CCCN2CCN(C)CC2)cc1OCCCCCCCCCCCC` [IAJD 78, 3,4-Bis(dodecyloxy)benzyl 4-(4-methylpiperazin-1-yl)butanoate] gave a pKa in data set [1] of 6.46. Also, the PDI in data set [2] (setting [3]), in data set [2] (setting [4]) and in data set [2] (setting [5]) was 1.000 each time. The “Size (d, nm)” value in data set [2] (setting [3]), in data set [2] (setting [4]) and in data set [2] (setting [5]) was 629 nm throughout. The “Organs with luminescence: spleen (weak/strong)” value (“Organs … (weak/strong)” below) with spleen (imaging 5 h after injection) is recorded as “spleen (weak)”.

For the compound `CCCCCCCCCCCCOc1cc(COC(=O)CCCN2CCN(C)CC2)cc(OCCCCCCCCCCCC)c1OCCCCCCCCCCCC` [IAJD 79, 3,4,5-Tris(dodecyloxy)benzyl 4-(4-methylpiperazin-1-yl)butanoate], the pKa in data set [1] turned out to be 6.25. The PDI in data set [2] (setting [3]), in data set [2] (setting [4]) and in data set [2] (setting [5]) was 0.763 each time. Also, the “Size (d, nm)” value in data set [2] (setting [3]), in data set [2] (setting [4]) and in data set [2] (setting [5]) was 352 nm in each case. Also, the “Organs … (weak/strong)” value in the data set on spleen (imaging 6 h after injection) is “spleen (strong)”.

In the case of `CCCCCCCCCCCCOCC(COCCCCCCCCCCCC)(COCCCCCCCCCCCC)COC(=O)CCCN1CCN(C)CC1` [IAJD 82, 3-(Dodecyloxy)-2,2-bis((dodecyloxy)methyl)propyl 4-(4-methylpiperazin-1-yl)butanoate], the pKa in data set [1] is 6.18. For the same compound, the PDI in data set [2] (setting [3]), in data set [2] (setting [4]) and in data set [2] (setting [5]) was 0.144 in each case. Also, the “Size (d, nm)” value in data set [2] (setting [3]), in data set [2] (setting [4]) and in data set [2] (setting [5]) was 162 nm in each case. Further, in the data set with spleen (imaging 5 h after injection), the “Organs … (weak/strong)” value is given as “Spleen (strong)”.

`CCCCCCCCCCCCOCC(COCCCCCCCCCCCC)(COCCCCCCCCCCCC)COC(=O)CCCN1CCN(CCO)CC1` [IAJD 83, 3-(Dodecyloxy)-2,2-bis((dodecyloxy)methyl)propyl 4-(4-(2-hydroxyethyl)piperazin-1-yl)butanoate] gave a pKa in data set [1] of 6.3. Moreover, the PDI in data set [2] (setting [3]), in data set [2] (setting [4]) and in data set [2] (setting [5]) was 0.430 throughout. In addition, the “Size (d, nm)” value in data set [2] (setting [3]), in data set [2] (setting [4]) and in data set [2] (setting [5]) was 143 nm in each case. For the same compound, the “Organs … (weak/strong)” value with spleen (imaging 5 h after injection) is “spleen (strong)”.

Take `CCCCCCCCCCCCOc1cc(COC(=O)CCN2CCN(C)CC2)cc(OCCCCCCCCCCCC)c1` [IAJD 84, 3,5-Bis(dodecyloxy)benzyl 3-(4-methylpiperazin-1-yl)propanoate]: the pKa in data set [1] is 6.19. For the same compound, the PDI in data set [2] (setting [3]), in data set [2] (setting [4]) and in data set [2] (setting [5]) was 0.303 throughout. Besides, the “Size (d, nm)” value in data set [2] (setting [3]), in data set [2] (setting [4]) and in data set [2] (setting [5]) was 171 nm throughout. For the same compound, the “Organs … (weak/strong)” value with spleen (imaging 5 h after injection) is reported as “spleen (strong)”.

As to `CCCCCCCOC(=O)CCCCOc1cc(COC(=O)CCCN2CCN(C)CC2)cc(OCCCCC(=O)OCCCCCCC)c1` [IAJD 85, Diheptyl 5,5′-((5-(((4-(4-methylpiperazin-1-yl)butanoyl)oxy)methyl)-1,3-phenylene)bis(oxy)) dipentanoate], the pKa in data set [1] is 6.21. Further, the PDI in data set [2] (setting [3]), in data set [2] (setting [4]) and in data set [2] (setting [5]) was 0.250 in each case. The “Size (d, nm)” value in data set [2] (setting [3]), in data set [2] (setting [4]) and in data set [2] (setting [5]) was 102 nm in each case. For the same compound, the “Organs … (weak/strong)” value in the data set with spleen (imaging 5 h after injection) is “spleen (strong)”.

In turn, `CCCCC(CC)COC(=O)CCCCOc1cc(COC(=O)CCCN2CCN(CCO)CC2)cc(OCCCCC(=O)OCC(CC)CCCC)c1` (stereo not shown) [IAJD 95] registered a pKa in data set [1] of 6.33. Moreover, the PDI in data set [2] (setting [3]), in data set [2] (setting [4]) and in data set [2] (setting [5]) was 0.352 in each case. In addition, the “Size (d, nm)” value in data set [2] (setting [3]), in data set [2] (setting [4]) and in data set [2] (setting [5]) was 105 nm each time. Moreover, the “Organs … (weak/strong)” value in the data set on spleen (imaging 6 h after injection) is listed as “spleen (strong)”.

The compound `CCCCC(CC)COc1cc(COC(=O)CCCN2CCN(C)CC2)cc(OCC(CC)CCCC)c1OCC(CC)CCCC` (stereo not shown) [IAJD 96, 3,4,5-Tris((2-ethylhexyl)oxy)benzyl 4-(4-methylpiperazin-1-yl)butanoate] returned a pKa in data set [1] of 6.32. The PDI in data set [2] (setting [3]), in data set [2] (setting [4]) and in data set [2] (setting [5]) was 0.402 in each case. The “Size (d, nm)” value in data set [2] (setting [3]), in data set [2] (setting [4]) and in data set [2] (setting [5]) was 139 nm each time. In the data set on spleen (imaging 5 h after injection), the “Organs … (weak/strong)” value is given as “spleen (strong)”.

Compound `CCCCC(CC)COc1cc(COC(=O)CCCN2CCN(CCO)CC2)cc(OCC(CC)CCCC)c1OCC(CC)CCCC` (stereo not shown) [IAJD 97, 3,4,5-Tris((2-ethylhexyl)oxy)benzyl 4-(4-(2-hydroxyethyl)piperazin-1-yl)butanoate] came in with a pKa in data set [1] of 6.46. For the same compound, the PDI in data set [2] (setting [3]), in data set [2] (setting [4]) and in data set [2] (setting [5]) was 0.482 in each case. In addition, the “Size (d, nm)” value in data set [2] (setting [3]), in data set [2] (setting [4]) and in data set [2] (setting [5]) was 204 nm throughout. In addition, the “Organs … (weak/strong)” value in the data set on spleen (imaging 5 h after injection) is “spleen (strong)”.

Compound `CCCCC(CC)COc1ccc(COC(=O)CCCN2CCN(C)CC2)cc1OCC(CC)CCCC` (stereo not shown) [IAJD 103, 3,4-Bis((2-ethylhexyl)oxy)benzyl 4-(4-methylpiperazin-1-yl)butanoate] registered a pKa in data set [1] of 6.23. The PDI in data set [2] (setting [3]), in data set [2] (setting [4]) and in data set [2] (setting [5]) was 0.275 in each case. Also, the “Size (d, nm)” value in data set [2] (setting [3]), in data set [2] (setting [4]) and in data set [2] (setting [5]) was 88 nm each time. The “Organs … (weak/strong)” value with spleen (imaging 6 h after injection) is given as “spleen (weak)”.

In data set [1], `CCCCCCCCCCCCCCOc1cc(CNC(=O)CCCN2CCN(C)CC2)cc(OCCCCCCCCCCCCCC)c1` [IAJD 108, N-(3,5-bis(tetradecyloxy)benzyl)-4-(4-methylpiperazin-1-yl)butanamide] yielded a pKa of 6.59. The PDI in data set [2] (setting [3]), in data set [2] (setting [4]) and in data set [2] (setting [5]) was 0.334 throughout. The “Size (d, nm)” value in data set [2] (setting [3]), in data set [2] (setting [4]) and in data set [2] (setting [5]) was 214 nm throughout. Also, the “Organs … (weak/strong)” value in the data set on spleen (imaging 6 h after injection) is reported as “spleen (weak)”.
